Reference: patent US20110097380A1, “CLONIDINE FORMULATIONS HAVING ANTIMICROBIAL PROPERTIES” (Warsaw Orthopedic, Inc., priority 2009, published 2011)

What was measured:
Experiment in all cases: Film inoculated on Tryptic Soy Agar plate: growth, zone of inhibition, scraping/streak
Type in all cases: cell-based
Conditions in all cases: after 4 days
[1] = system: Escherichia coli ATCC 8739
Procedure: (§1) Each film sample was individually placed on the surface of a Tryptic Soy Agar (TSA) plate in an aseptic manner. Each film was individually inoculated with 1 mL of one of the three (3) challenge organisms shown below. For each challenge organism, one “Sample Film” and one “Control Film” were inoculated. Due to the anticipated slow absorption of the challenge inoculum by the test samples, the inoculum was dispensed onto each film sample very slowly. After inoculation, each sample was carefully moved to incubation at the temperature range appropriate for the inoculated challenge organism and incubated for four (4) days. Each day of incubation, all plates were removed from incubation for visual and stereoscopic evaluation. Upon evaluation, the presence or absence of growth on the plate and/or on the sample was noted. In addition, the sample was evaluated for the presence or absence of a zone of inhibition around the sample. The presence or absence of a zone was reported as “Z” for Zone (size in mm) or “NZ” for no zone present. [table] Additional Test Information: • G=Growth • NG=No Growth • Z=Zone (in mm) • NZ=No Zone • Additional Information/Observations: At the conclusion of the testing period, all test samples were individually removed from the agar surface and gently shaken to remove any excess moisture remaining on the surface of the sample. The samples were then individually examined under the stereoscope by a laboratory technician. […] Following the documentation of the observations above, each sample was scraped with an inoculating loop on the inoculated, top side of each sample to determine whether macroscopic growth could be visually observed. […] The following is a summary of findings from this portion of the test: […]

[2] = system: Staphylococcus aureus ATCC 6538
Procedure: as §1

[3] = system: Candida albicans ATCC 10231
Procedure: as §1

Clc1cccc(Cl)c1N=C1NCCN1 [clonidine, 2,6-dichloro-N-2-imidazolidinyldenebenzenamine]
inhibited growth: growth of gram negative bacteria (E. coli) [1] | growth of gram positive bacteria (S. aureus) [2] | growth of fungus (C. albicans) [3]
